From patent publication US11981669B2, “1,7-naphthyridine derivative and preparation method and use therefor” (CSPC ZHONGQI PHARMACEUTICAL TECHNOLOGY (SHIJIAZHUANG) CO., …, priority 2018, dated 2024)
“And” between values parts separate entries of the source, which are not always exact repeats. Equal values may be shown once. Marks after values point to notes of the source that are not given here.

How the values were obtained:
erythropoietin = assay: Expression of erythropoietin in vivo (plasma EPO ELISA after single oral dose); conditions: once, plasma 6 hours after administration;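 also: male C57 mice given compound by mouth, five animals per treatment group, with EPO in plasma measured by ELISA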
Experimental: (2) 30 c57 mice, male, were divided into 6 groups, 5 mice in each treatment group. […] 6 hours after the administration, blood was taken, and plasma was collected for EPO detection with an ELISA kit (R&D Co.).

HIF-1α = assay: Expression of HIF-1α protein in Hep3B cells (western blot, grayscale analysis); type: cell-based, Human; conditions: for fold induction at 30 µM: Homo sapiens, 2 h, compound at 30 μM, 10 μM and 3 μM, read-out: HIF-1α level of the compound of the present disclosure/HIF-1α level of blank control
Experimental: (§1) A test compound was dissolved in dimethyl sulfoxide into a 100 mM stock solution, and then was diluted with 0.5% FBS-containing DMEM medium into 30 μM, 10 μM and 3 μM for later use. Human liver cancer cells Hep3B were seeded in a six-well plate at a density of 2.25*10^5 cells/well, 2 mL per well. After cultivation overnight, the cells were treated with compounds at different concentrations for 2 h. The proteins were extracted for western blot and further grayscale analysis.

[1] = tested on: rats with residual kidney; assay: SD rat residual kidney experiment; type: in vivo, SD rats; design: Hematocrit / Alanine aminotransferase / Glutamic-oxalacetic transaminase: unit not given here
Experimental: 79 SD rats were subjected to residual kidney surgery after anesthesia (left kidney was resected, one third of the right kidney was left, and the resected kidney part was weighed to confirm the surgical error). After 4 weeks, 45 surviving rats were subjected to blood cell dection and then assigned according to the HCT value 37 rats in good condition were selected and divided into the following groups: Link-118 (5, 10 mg/kg), Link-121 (5, 10 mg/kg), and FG-4592 (10 mg/kg), 6 rats in each treatment group, and 7 in the model group. 4 rats were assigned to the blank control group. The rats were administered three times each week (administered on Monday, Wednesday, and Friday), for 15 times, and blood was taken 24 hours after the last administration (tested by blood routine, blood biochemistry, hepcidin kit).

reticulocytes = assay: Effect on reticulocytes of normal mice; type: in vivo, Balb/c mice; design: Reticulocytes (RETIC), average: unit not given here
Experimental: 72 Balb/c mice, male, were divided into 12 groups, 6 mice in each treatment group. In the positive drug control groups: the mice in the FG-4592 treatment groups were orally administered once, at two doses of 10 mg/kg and 50 mg/kg, and the mice in the rhEPO treatment group was intraperitoneaily injected once, at a dose of 100 IU/kg. The compounds of the present disclosure were all orally administered once at a dose of 10 mg/kg. 72 h after the administration, blood was collected from the orbit of all animals, and subjected to EDTA-K2 anticoagulation. Then reticulocytes (RETIC) were counted with an automatic blood cell analyzer.

HIF-2α = assay: Expression of HIF-2α protein in Hep3B cells (western blot, grayscale analysis); type: cell-based, Human; conditions: for fold induction at 30 µM: Homo sapiens, 2 h, compound at 30 μM, 10 μM and 3 μM, read-out: HIF-2α level of the compound of the present disclosure/HIF-2α level of blank control
Experimental: as §1

CYP2C9 = CYP2C9 (Homo sapiens (Human), UniProt P11712); assay: CYP enzyme inhibition assay; type: in vitro ADME
Text: (§2) The compounds of the present disclosure were subjected to the CYP450 enzyme inhibition assay.

CYP2D6 = CYP2D6 (Homo sapiens (Human), UniProt P10635); assay: CYP enzyme inhibition assay; type: in vitro ADME
Text: as §2

CYP2C19 = CYP2C19 (Homo sapiens (Human), UniProt P33261); assay: CYP enzyme inhibition assay; type: in vitro ADME
Text: as §2

CYP3A4-M = CYP3A4-M (Homo sapiens (Human), UniProt P08684); assay: CYP enzyme inhibition assay; type: in vitro ADME
Text: as §2

hERG channels = hERG channels (Homo sapiens (Human), UniProt Q12809); assay: cell-based; type: cell-based; conditions: for Inhibitory effect on hERG current at the highest test concentration: human, 30 μM
Experimental: Whole-cell patch clamp technique was used to record hERG current. A cell suspension was added to a 35 mm Petri dish, and the dish was then placed on an inverted microscope stage. After the adherence of cells, they were perfused with extracellular fluid at a flow rate of 1-2 mL/min. A glass microelectrode was drawn by a microelectrode puller in two steps, and the pipette tip resistance was between 2-5 MΩ. After establishing the whole cell recording, the clamp potential was held at −80 mV, followed by depolarization to +60 mV when given voltage stimulation and then repolarization to −50 mV to elicit hERG tail current. All recordings were performed after the current was stable. Extracellular perfusion administration started from a low concentration, staying for 5-10 min at each concentration until the current was stable, and then cells were further perfused with the next concentration.

CYP1A2 = CYP1A2 (Homo sapiens (Human), UniProt P05177); type: in vitro ADME
Text: as §2

[2] = 10 mg/kg, three times each week, 15 times, x ± sd
[3] = compared with the blank control group
[4] = 10 mg/kg p.o., once, 72 h after administration
[5] = 100 IU/kg i.p., once, 72 h after administration

Chain of CYP2C9 (P11712 whole entry): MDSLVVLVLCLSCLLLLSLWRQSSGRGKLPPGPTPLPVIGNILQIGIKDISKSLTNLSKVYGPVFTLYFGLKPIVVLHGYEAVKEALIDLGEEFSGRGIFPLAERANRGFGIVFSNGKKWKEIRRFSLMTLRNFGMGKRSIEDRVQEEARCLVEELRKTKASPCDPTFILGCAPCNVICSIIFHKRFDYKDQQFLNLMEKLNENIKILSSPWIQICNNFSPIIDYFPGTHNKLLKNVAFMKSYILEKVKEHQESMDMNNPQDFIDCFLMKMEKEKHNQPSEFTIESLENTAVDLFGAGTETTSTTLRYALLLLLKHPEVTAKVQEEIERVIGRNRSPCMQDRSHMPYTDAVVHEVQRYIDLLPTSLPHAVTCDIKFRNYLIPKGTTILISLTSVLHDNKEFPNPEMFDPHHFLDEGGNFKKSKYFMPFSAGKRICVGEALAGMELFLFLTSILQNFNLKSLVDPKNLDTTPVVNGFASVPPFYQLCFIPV
Chain of CYP2C19 (P33261 whole entry): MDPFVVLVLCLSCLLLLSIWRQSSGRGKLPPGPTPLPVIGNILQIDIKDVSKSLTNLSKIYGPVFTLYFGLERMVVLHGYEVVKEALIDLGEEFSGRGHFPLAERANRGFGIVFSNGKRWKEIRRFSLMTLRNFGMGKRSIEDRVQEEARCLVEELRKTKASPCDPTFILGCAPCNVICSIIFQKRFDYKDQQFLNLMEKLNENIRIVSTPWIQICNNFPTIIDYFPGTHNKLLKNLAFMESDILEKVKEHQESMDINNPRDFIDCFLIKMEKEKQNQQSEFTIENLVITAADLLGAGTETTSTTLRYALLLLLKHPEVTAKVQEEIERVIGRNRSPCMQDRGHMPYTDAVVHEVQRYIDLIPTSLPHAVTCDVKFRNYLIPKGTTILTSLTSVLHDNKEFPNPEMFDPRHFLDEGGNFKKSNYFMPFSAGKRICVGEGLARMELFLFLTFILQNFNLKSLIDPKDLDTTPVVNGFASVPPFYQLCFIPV
Chain of hERG channels (Q12809 whole entry, the tested form may be a part): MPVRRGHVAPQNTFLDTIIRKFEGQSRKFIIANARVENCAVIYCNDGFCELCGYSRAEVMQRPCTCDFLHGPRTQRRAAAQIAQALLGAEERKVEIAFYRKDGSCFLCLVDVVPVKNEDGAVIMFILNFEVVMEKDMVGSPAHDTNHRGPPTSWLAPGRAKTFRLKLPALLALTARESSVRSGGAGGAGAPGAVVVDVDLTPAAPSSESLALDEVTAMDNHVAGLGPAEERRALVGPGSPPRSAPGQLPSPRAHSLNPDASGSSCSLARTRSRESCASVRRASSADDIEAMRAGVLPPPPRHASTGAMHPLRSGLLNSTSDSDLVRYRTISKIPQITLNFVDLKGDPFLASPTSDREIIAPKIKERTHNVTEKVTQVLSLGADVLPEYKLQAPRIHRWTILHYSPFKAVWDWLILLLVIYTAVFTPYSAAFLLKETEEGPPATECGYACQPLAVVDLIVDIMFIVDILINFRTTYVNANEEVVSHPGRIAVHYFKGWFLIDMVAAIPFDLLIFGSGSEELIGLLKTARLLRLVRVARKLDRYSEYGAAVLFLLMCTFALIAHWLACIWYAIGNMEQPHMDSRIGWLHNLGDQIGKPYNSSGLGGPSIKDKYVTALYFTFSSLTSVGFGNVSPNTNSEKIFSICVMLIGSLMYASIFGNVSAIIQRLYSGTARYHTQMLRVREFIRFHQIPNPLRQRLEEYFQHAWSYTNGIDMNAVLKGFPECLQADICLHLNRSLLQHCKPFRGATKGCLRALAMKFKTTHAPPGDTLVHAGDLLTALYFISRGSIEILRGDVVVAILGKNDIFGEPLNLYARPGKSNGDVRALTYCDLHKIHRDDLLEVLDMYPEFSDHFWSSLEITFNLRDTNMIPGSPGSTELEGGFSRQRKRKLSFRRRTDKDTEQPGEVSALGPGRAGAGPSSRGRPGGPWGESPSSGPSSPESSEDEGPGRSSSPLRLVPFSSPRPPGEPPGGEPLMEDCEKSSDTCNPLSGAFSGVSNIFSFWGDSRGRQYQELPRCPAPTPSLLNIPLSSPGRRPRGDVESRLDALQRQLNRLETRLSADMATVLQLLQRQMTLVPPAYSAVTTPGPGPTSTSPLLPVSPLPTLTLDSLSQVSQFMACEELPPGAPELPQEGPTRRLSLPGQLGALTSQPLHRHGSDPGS
Chain of CYP2D6 (P10635 whole entry): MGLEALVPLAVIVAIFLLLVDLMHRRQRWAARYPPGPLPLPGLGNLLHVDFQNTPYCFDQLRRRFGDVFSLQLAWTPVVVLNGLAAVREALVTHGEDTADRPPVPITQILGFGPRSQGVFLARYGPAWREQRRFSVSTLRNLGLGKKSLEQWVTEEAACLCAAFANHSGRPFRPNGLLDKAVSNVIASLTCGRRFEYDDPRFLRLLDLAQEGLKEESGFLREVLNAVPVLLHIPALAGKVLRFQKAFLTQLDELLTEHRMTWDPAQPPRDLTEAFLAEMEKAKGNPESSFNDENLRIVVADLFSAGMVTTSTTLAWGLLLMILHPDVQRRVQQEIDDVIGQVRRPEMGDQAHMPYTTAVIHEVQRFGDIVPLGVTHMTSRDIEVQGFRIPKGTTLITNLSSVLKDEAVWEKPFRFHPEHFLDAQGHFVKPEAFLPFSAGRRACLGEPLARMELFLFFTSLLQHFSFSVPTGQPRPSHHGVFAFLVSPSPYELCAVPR
Chain of CYP1A2 (P05177 whole entry): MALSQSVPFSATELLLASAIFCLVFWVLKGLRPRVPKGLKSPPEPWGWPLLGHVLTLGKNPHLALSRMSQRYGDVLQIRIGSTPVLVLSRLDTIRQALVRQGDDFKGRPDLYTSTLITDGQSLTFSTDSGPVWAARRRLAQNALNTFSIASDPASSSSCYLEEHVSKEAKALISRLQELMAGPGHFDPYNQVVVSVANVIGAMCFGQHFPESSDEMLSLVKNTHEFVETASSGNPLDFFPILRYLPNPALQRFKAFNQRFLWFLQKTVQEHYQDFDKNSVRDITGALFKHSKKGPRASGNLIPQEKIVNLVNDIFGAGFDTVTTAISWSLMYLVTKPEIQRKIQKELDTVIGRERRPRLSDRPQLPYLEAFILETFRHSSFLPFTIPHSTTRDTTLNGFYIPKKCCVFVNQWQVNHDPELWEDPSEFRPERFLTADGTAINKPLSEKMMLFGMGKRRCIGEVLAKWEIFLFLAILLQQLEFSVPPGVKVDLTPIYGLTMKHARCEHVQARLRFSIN
Chain of CYP3A4-M (P08684 whole entry): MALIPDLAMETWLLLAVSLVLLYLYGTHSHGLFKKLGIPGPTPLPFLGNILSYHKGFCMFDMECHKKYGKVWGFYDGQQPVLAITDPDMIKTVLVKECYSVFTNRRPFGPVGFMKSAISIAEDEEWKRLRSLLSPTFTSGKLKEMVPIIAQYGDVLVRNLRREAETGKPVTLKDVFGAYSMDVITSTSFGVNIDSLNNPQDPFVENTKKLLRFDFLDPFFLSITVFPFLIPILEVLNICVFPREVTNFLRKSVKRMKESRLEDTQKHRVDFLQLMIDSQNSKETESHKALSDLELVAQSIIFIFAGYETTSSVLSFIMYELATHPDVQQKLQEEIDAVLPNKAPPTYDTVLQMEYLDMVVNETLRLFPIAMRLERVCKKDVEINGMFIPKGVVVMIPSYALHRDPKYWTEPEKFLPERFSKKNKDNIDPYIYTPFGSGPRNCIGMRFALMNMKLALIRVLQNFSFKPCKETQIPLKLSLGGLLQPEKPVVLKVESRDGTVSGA

Compound	EPO OD value (erythropoietin; 10 mg/kg)	EPO OD value (erythropoietin; 50 mg/kg)	fold induction at 30 µM (HIF-1α)	Reticulocytes (RETIC), average (reticulocytes; [4])	fold induction at 30 µM (HIF-2α)	IC50 (CYP2C9)	IC50 (CYP2D6)	IC50 (CYP2C19)	IC50 (CYP3A4-M)	IC50 (hERG channels)	Inhibitory effect on hERG current at the highest test concentration (hERG channels)	IC50 (CYP1A2)	also measured
O=c1c(-n2ccnn2)c[nH]n1-c1cc(N2CCOCC2)ncn1 [BAY85-3934, reference compound]	B (B represents 1.5<EPO OD value<2)	D (D represents EPO OD value>3)	–	–	–	–	–	–	–	–	–	–	–
Cc1nc(C(=O)NCC(=O)O)c(O)c2ccc(Oc3ccccc3)cc12 [FG-4592, reference compound]	A (A represents 1.0<EPO OD value<1.5)	A (A represents 1.0<EPO OD value<1.5)	8.5 to 10	4.73	8.5 to 10	–	–	–	–	–	–	–	Red blood cells ([1]; 10 mg/kg, three times each week, 15 times, blood 24 hours after last administration, x ± sd): 8.26 ± 0.41** 10^12/L; Alanine aminotransferase [1, 2]: 40.4 ± 3.58; Glutamic-oxalacetic transaminase [1, 2]: 11620 ± 10.96; Hematocrit [1, 2]: 47.7 ± 2.19; Hemoglobin [1, 2]: 16720 ± 8.47 g/L; Hepcidin [1, 2]: 2.59 ± 0.7015 ng/mL; Effect on glutamic-oxalacetic transaminase [1, 3]: no significant effect; Effect on liver glutamic-pyruvic aminotransferase [1, 3]: no significant effect; Effect on HCT in rats with residual kidney ([1]; compared with the model group): significantly increase; Effect on HGB in rats with residual kidney ([1]; compared with the model group): significantly increase; Effect on RBC in rats with residual kidney ([1]; compared with the model group): significantly increase; Effect on hepcidin in rats with residual kidney ([1]; compared with the model group): significantly inhibit; Reticulocytes (RETIC), average (reticulocytes; 50 mg/kg p.o., once, 72 h after administration): 7.42; Reticulocyte counts compared with normal animals (reticulocytes; 72 h after single administration, FG4592 statement at 10 mg/kg): no significant difference from normal animals
COc1ccc(Oc2ccc3c(O)c(C(=O)NCC(=O)O)nc(Cl)c3n2)cc1 [Link-119, 2-(2-(4-methoxyphenoxy)-5-hydroxy-8-chloro-1,7-naphthyridine-6-formamido) Acetic Acid]	A (A represents 1.0<EPO OD value<1.5)	A (A represents 1.0<EPO OD value<1.5)	–	–	–	–	–	–	–	–	–	–	–
O=C(O)CNC(=O)c1nc(Cl)c2nc(Oc3cccnc3)ccc2c1O [Link-120, 2-(2-(pyrid-3-yloxy)-5-hydroxy-8-chloro-1,7-naphthyridine-6-formamido) Acetic Acid]	A (A represents 1.0<EPO OD value<1.5)	A (A represents 1.0<EPO OD value<1.5)	–	–	–	–	–	–	–	–	–	–	–
O=C(O)CNC(=O)c1nc(Cl)c2nc(Cl)ccc2c1O [Link-122, 2-(2,8-dichloro-5-hydroxy-1,7-naphthyridine-6-formamido) acetic acid]	A (A represents 1.0<EPO OD value<1.5)	B (B represents 1.5<EPO OD value<2)	–	–	–	–	–	–	–	–	–	–	–
O=C(O)CNC(=O)c1nc(Br)c2nc(Oc3ccccc3Cl)ccc2c1O [Link-125, 2-(2-(2-chlorophenoxy)-5-hydroxy-8-bromo-1,7-naphthyridine-6-formamido) Acetic Acid]	A (A represents 1.0<EPO OD value<1.5)	D (D represents EPO OD value>3)	4.5 to 8.5	5.62	1 to 4.5	> 50 µM	> 50 µM	> 50 µM	> 50 µM	> 30 µM	far from the IC50 value	> 50 µM	HIF-1α protein expression compared with blank control (HIF-1α): higher than that of the blank control; HIF-2α protein expression compared with blank control (HIF-2α): higher than that of the blank control
O=C(O)CNC(=O)c1nc(Cl)c2nc(Oc3cccc(Cl)c3)ccc2c1O [Link-126, 2-(2-(3-chlorophenoxy)-5-hydroxy-8-chloro-1,7-naphthyridine-6-formamido) Acetic Acid]	A (A represents 1.0<EPO OD value<1.5)	D (D represents EPO OD value>3)	–	5.87	–	> 50 µM	> 50 µM	> 50 µM	> 50 µM	> 30 µM	far from the IC50 value	> 50 µM	–
O=C(O)CNC(=O)c1nc(Br)c2nc(Oc3cccc(Cl)c3)ccc2c1O [Link-127, 2-(2-(3-chlorophenoxy)-5-hydroxy-8-bromo-1,7-naphthyridine-6-formamido) Acetic Acid]	A (A represents 1.0<EPO OD value<1.5)	D (D represents EPO OD value>3)	–	5.63	–	> 50 µM	> 50 µM	> 50 µM	> 50 µM	> 30 µM	far from the IC50 value	37.9 µM	–
O=C(O)CNC(=O)c1nc(Cl)c2nc(Oc3ccc(Cl)cc3)ccc2c1O [Link-128, 2-(2-(4-chlorophenoxy)-5-hydroxy-8-chloro-1,7-naphthyridine-6-formamido) Acetic Acid]	A (A represents 1.0<EPO OD value<1.5)	D (D represents EPO OD value>3)	–	6.15	–	> 50 µM	> 50 µM	> 50 µM	> 50 µM	> 30 µM	far from the IC50 value	> 50 µM	–
O=C(O)CNC(=O)c1nc(Br)c2nc(Oc3ccc(F)cc3)ccc2c1O [Link-131, 2-(2-(4-fluorophenoxy)-5-hydroxy-8-bromo-1,7-naphthyridine-6-formamido) Acetic Acid]	A (A represents 1.0<EPO OD value<1.5)	A (A represents 1.0<EPO OD value<1.5)	4.5 to 8.5	–	4.5 to 8.5	–	–	–	–	–	–	–	HIF-1α protein expression compared with blank control (HIF-1α): higher than that of the blank control; HIF-2α protein expression compared with blank control (HIF-2α): higher than that of the blank control
CCOc1ccc2c(O)c(C(=O)NCC(=O)O)nc(Cl)c2n1 [Link-134, 2-(2-ethoxy-5-hydroxy-8-chloro-1,7-naphthyridine-6-formamido) Acetic Acid]	A (A represents 1.0<EPO OD value<1.5)	A (A represents 1.0<EPO OD value<1.5)	1 to 4.5	–	1 to 4.5	–	–	–	–	–	–	–	HIF-1α protein expression compared with blank control (HIF-1α): higher than that of the blank control; HIF-2α protein expression compared with blank control (HIF-2α): higher than that of the blank control
CC(C)(C)C(=O)OCOC(=O)CNC(=O)c1nc(Cl)c2nc(Oc3ccccc3)ccc2c1O [Link-135, methyl (2-(2-phenoxy-5-hydroxy-8-chloro-1,7-naphthyridine-6-formamido)acetoxy) pivalate]	B (B represents 1.5<EPO OD value<2)	B (B represents 1.5<EPO OD value<2)	–	–	–	–	–	–	–	–	–	–	–
rhEPO: positive drug control, intraperitoneally injected once at 100 IU/kg	–	–	–	–	–	–	–	–	–	–	–	–	Reticulocytes (RETIC), average (reticulocytes; [5]): 6.58; Reticulocytes (RETIC), individual animals No. 1-6 (reticulocytes; [5]): 5.9 (2×) and 6.6 (2×) and 7.1 and 7.4
